Columns and labels:
[1] = system: human umbilical vein endothelial cells (HUVECs) co-cultured with normal human dermal fibroblasts (NHDF); assay: Anti-angiogenesis: capillary-tube formation assay (Kurabo angiogenesis kit); format: cell-based; conditions: HUVEC tube formation inhibition, HUVEC/NHDF co-culture, 11 d, 1-100 μM
Experimental: Capillary-tube formation was assayed using the angiogenesis kits (Kurabo, Okayama, Japan) according to the manufacturer's instruction. Briefly, human umbilical vein endothelial cells (HUVECs) co-cultured with normal human dermal fibroblasts (NHDF), which a cultural kit originally developed by Kurabo Co. Ltd., Okayama, Japan, onto 24-well plate were incubated either with or without test compounds and resveratrol respectively at appropriate concentrations (1-100 μM) for 11 d (media replacement was performed at d 1, 4, 7, and 9). The cells were thereafter fixed with 70% cold ethanol, incubated with mouse antihuman CD31 antibody followed by incubation with an alkaline phosphatase conjugate goat antimouse antibody, and then stained with 5-bromo-4-chloro-3-indolyl phosphate/nitro blue tetrazolium to visualize tube network at d-11, respectively. In each assay, randomly selected five fields of view in each well were captured by digital camera under the light microscopy on ×40 magnification. The analysis of tube formation was then carried out by measuring total area and length of tubes per well using analytical software (by Kurabo).

[2] = system: RAW 264.7 macrophage cell line (LPS-stimulated NO production); assay: Nitric oxide inhibition: nitrite quantification with Griess reagent in LPS-stimulated macrophage cells; format: cell-based, mouse; conditions: nitrite in supernatant of LPS (100 ng/ml)-stimulated RAW 264.7 cells, 24 h, lowest tested concentration 25 μM
Source text: The mouse BALB/c macrophage cell line, RAW 264.7 BCRC No. 60001 (identical to ATCC number TIB-71), was obtained from Bioresource Collection and Research Center, Taiwan. The cells were maintained according to the protocols being cultured in 50 cm^2 plastic flasks (Nunc, Roskilde, Denmark) with the medium renewed every 3 days. LPS (from Escherichia coli, serotype 0127:B8), trypan blue and all the other chemicals, unless otherwise specified, were purchased from Aldrich-Sigma Chemical Company (St. Louis, Mo., USA).
The cells were cultured with or without a pretreatment by the test compounds and resveratrol of 25, 50, 100, and up to 200 μM as already described. Each value is the mean±SEM of three determinations. *p<0.05, each value was compared with or without the LPS-stimulated group.
The production of NO was determined by measuring the accumulated level of nitrite in the culture supernatant with the Griess reagent in LPS-stimulated macrophage cells. A quantity of 100 μl of a sample aliquot were mixed with 100 μl of the Griess reagent (0.1% N-(1-naphthyl)ethylenediamine, 1% sulfanilamide, and 2.5% phosphoric acid) in a 96-well plate and then incubated at 25° C. for 10 min. The absorbance at 550 nm was measured with an ELISA reader (MR 700, Dynatech Laboratories, Alexandria, Va., USA). NaNO2 was used as the standard to calculate the nitrite concentration.

[3] = system: λ-carrageenan-induced paw edema in Wistar rats; assay: In-vivo carrageenan-induced paw edema study; conditions: rat, 20 mg/kg i.p. single dose in CMC, 5 h after carrageenan
Experimental: In this study, X-carrageenan was used to stimulate the inflammation on the rear footpad of the rats. Male albino Wistar rats (183-218 g) 4 to 6 weeks old were housed and cared under the guidelines of the Institutional Animal Care and Use Committee at the National Defense Medical Center, Taiwan. The rats were assigned to groups. For each group, 3 rats were used and marked on the tails. one of them being the control. In order to induce inflammation, 50 μl of a 1% λ-carrageenan solution in normal saline was injected into the right hind paw subplantar tissue. The development of paw edema was measured plethysmographically (Basile 7140 plethysmometer, Ugo, Varese, Italy) and recorded prior to this administration. […] Before carrageenan treatment, the volume of each […] footpad was measured (V0). […] After the λ-carrageenan challenge, each paw volume (ml) was measured hourly up to 5 h. The percentage of paw edema and the inhibition of inflammation were calculated. Edema rate (E %) was calculated as follows: E%=(Vt-V0)/V0×100; V0: volume of hind paw before 1% λ-carrageenan administration; Vt: volume of hind paw after 1% carrageenan administration at t h. Percentage of inhibition (1%) was determined as follows: 1%(Ec-Et)/Ec×100; Ec: edema rate of control group; Et: edema rate of the respective test compound at t h. […]

Row | Compound | IC50 ([1]; Homo sapiens, 264 h) | IC50 ([2]; Mus musculus, RAW264.7) | IC50 [1] | IC50 [2] | Percentage of inhibition of paw edema [3] | paw edema (increase of paw volume) ([3]; p<0.05)
1 | Oc1ccc(/C=C/c2cc(O)cc(O)c2)cc1 [Resveratrol (1), 3,5,4′-trihydroxy-trans-stilbene, reference compound] | 47.7 ± 1.1 µM | 40 µM | – | – | – | –
2 | CC[n+]1c(/C=C/c2cc(OC)c(O)c(OC)c2)sc2ccccc21 [Compound 5, N-Ethyl-2-[(E)-2-(3′,5′-dimethoxy-4′-hydroxyphenyl)vinyl]benzothiazolium bromide] | – | – | 21.2 ± 1.6 µM | < 25 µM | – | –
3 | CC[n+]1c(/C=C/c2ccc(OC)cc2O)sc2ccccc21 [Compound 3, N-Ethyl-2-[(E)-2-(2′-hydroxy-4′-methoxyphenyl)vinyl]benzothiazolium bromide] | – | – | 31.2 ± 2 µM | < 25 µM | – | –
4 | N-Ethyl-2-[(E)-2-(3′,4′,5′-trimethoxyphenyl)vinyl]benzothiazolium bromide [Compound 4] | – | – | 18.8 ± 1.3 µM | < 25 µM | 69.5% | 0.21 ± 0.06 mL
5 | CC[n+]1c(/C=C/c2ccc(O)c(OC)c2)sc2ccccc21 [Compound 6, N-Ethyl-2-[(E)-2-(4′-hydroxy-3′-methoxyphenyl)vinyl]benzothiazolium bromide] | – | – | 19.9 ± 2.3 µM | < 25 µM | – | –

Reference: patent US20150353515A1, “Novel analogs of resveratrol” (priority 2014, published 2015)
